In patent US6734177B2, “Certain salts of discodermolide acid, pharmaceutical compositions containing them and their use in treating tumors” (Novartis AG, priority 2001, dated 2004):

Legend:
1A9 ovarian carcinoma = assay: Hollow fiber in vivo tumor cell cultivation model in athymic nude mice; set-up: species or system human
Description: (§1) Utilizing this model, one can measure the ability of test compounds to inhibit the growth of human tumor cells in hollow fibers growing subcutaneously (s.c.) in athymic nude mice. The histologic tumor types employed were MIP 101 colon carcinoma, HCT-116 colon carcinoma, 1A9PTX22 ovarian carcinoma, and 1A9 ovarian carcinoma.
(§2) The HCT 116 human colon tumor cell line was obtained from the American Type Culture Collection, Rockville, Md. The MIP 101 human colon tumor cell line was obtained from Dr. Robert Kramer (Bristol Meyers Squibb) and was previously described (Niles R M, Wilhelm S A, Steele G D JR, Burke B, Christensen T, Dexter D, O'Brien M J, Thomas P, Zamcheck N. Isolation and characterization of an undifferentiated human colon carcinoma cell line (MIP-101). Cancer Invest. 1987;5(6):545-52.). The 1A9 and the 1A9PTX22 ovarian tumor cell lines were obtained from Dr. Toto Fojo, Medicine Branch, Division of Clinical Sciences, National Cancer Institute, National Institutes of Health, Bethesda, Md. 20892. The 1A9 is a clone of the ovarian carcinoma cell line, A2780 (Balachandran R, ter Haar E, Welsh M J, Grant S G, Day B W. The potent microtubule-stabilizing agent (+)-discodermolide induces apoptosis in human breast carcinoma cells-preliminary comparisons to paclitaxel. Anti-Cancer Drugs 1998; 9:67-76. [Errata: Anti-Cancer Drugs 1998: 9:369-370]). The 1A9PTX22 subline was isolated as an individual clone from the 1A9 cell line in a single step selection by exposure to 5 ng/mL paclitaxel in the presence of 5 μg/mL of verapamil. […] Resistance to paclitaxel was maintained after two years of culturing in drug-free media, and was attributed to the Ala^364→Thr mutation in β-tubulin that was found in the 1A9PTX22 cell line. All cell lines were propagated and expanded in RPMI 1640 medium containing 10% heat-inactivated FBS (Life Technologies, Grand Island, N.Y.) in a tissue culture incubator (37° C., controlled, humidified atmosphere containing 5% CO2). Cell expansions were performed in T75 tissue culture flasks (Costar®, Corning, N.Y.). For hollow fiber preparations, cells were harvested at 70-90% confluency using 0.25% Trypsin-EDTA (Life Technologies, Grand Island, N.Y.).
(§3) PVDF hollow fibers (Spectrum, Gardena, Calif.) were soaked in 70% EtOH for 72 hours before use. After this step, all handling of fibers was done under a biological laminar flow hood using aseptic procedures. Individual fibers were flushed with 3 mL of ice-cold tissue culture media using a syringe equipped with a 20-gauge needle. Next, each fiber was filled with an appropriate cell suspension (1×10^6 cells/mL for the 1A9 and 1A9PTX22 cells, and 0.3×10^6 cells/mL for the HCT 116 and MIP 101 cells), and both ends of the fiber were sealed with a hot flat needle holder. The entire length of the fiber was then sealed into 1.5 cm microcapsules (further called “hollow fibers”), each containing approximately 15 μL of the appropriate cell suspension. After separation, individual hollow fibers were placed in 6 well plates (6 fibers in 5 mL media per well), and were incubated overnight at 37° C. in the tissue culture incubator.
(§4) Outbred athymic (nu/nu) female mice (“Chrls:Athymic Nude-nu”, Charles River Laboratories, Wilmington, Mass.) were anesthetized with ip injections of Ketamine/Xylazine (150 mg/kg, and 12 mg/kg body weight, respectively). For the subcutaneous implantation an 11-gauge trocar containing one or two hollow fibers was inserted through an incision made with scissors at the nape of the neck of an animal, and fibers were released by retracting the trocar while depressing the plunger. This procedure was repeated until all four hollow fibers were implanted. One wound clip was used to close the skin incision. After the surgery each animal received a single, subcutaneous injection of 0.4 mg/kg butorphenol to relieve any potential pain. Animals recovered from the anesthesia on a heating pad, before returning to their cages. […]

[1] = system: 1A9PTX22 ovarian carcinoma; assay: as above; set-up: species or system human; settings: for Experiment #1 % T/C ± SEM / Experiment #2 % T/C ± SEM: 1A9PTX22 hollow fibers s.c., day 7, Paclitaxel 15 mg/kg i.v. daily for 5 days, Ex. 1 45 mg/kg i.v. once; for Average % T/C: 1A9PTX22 hollow fibers, average of experiments #1 and #2
Description: as §1, §2, §3, §4

HCT-116 colon carcinoma = assay: as above; set-up: species or system human; settings: for Experiment #1 % T/C ± SEM / Experiment #2 % T/C ± SEM: HCT 116 hollow fibers s.c., day 7, Paclitaxel 15 mg/kg i.v. daily for 5 days, Ex. 1 45 mg/kg i.v. once; for Average % T/C: HCT 116 hollow fibers, average of experiments #1 and #2
Description: as §1, §2, §3, §4

MIP 101 colon carcinoma = assay: as above; set-up: species or system human; settings: for Experiment #1 % T/C ± SEM / Experiment #2 % T/C ± SEM: MIP 101 hollow fibers s.c., day 7, Paclitaxel 15 mg/kg i.v. daily for 5 days, Ex. 1 45 mg/kg i.v. once; for Average % T/C: MIP 101 hollow fibers, average of experiments #1 and #2
Description: as §1, §2, §3, §4

1A9PTX22 cell line = settings: 1A9PTX22 vs parental 1A9; cited from earlier work
[2] = 1A9 hollow fibers s.c., day 7, Paclitaxel 15 mg/kg i.v. daily for 5 days, Ex. 1 45 mg/kg i.v. once
[3] = 1A9 hollow fibers, average of experiments #1 and #2

Compound	Experiment #2 % T/C ± SEM (1A9 ovarian carcinoma; 1A9 hollow fibers s.c., day 7, Ex. 1 45 mg/kg i.v. once) [%]	Experiment #1 % T/C ± SEM (1A9 ovarian carcinoma; [2]) [%]	Average % T/C (1A9 ovarian carcinoma; [3]) [%]	Experiment #1 % T/C ± SEM [1] [%]	Experiment #2 % T/C ± SEM [1] [%]	Average % T/C [1] [%]	Experiment #1 % T/C ± SEM (HCT-116 colon carcinoma) [%]	Experiment #2 % T/C ± SEM (HCT-116 colon carcinoma) [%]	Average % T/C (HCT-116 colon carcinoma) [%]	Experiment #1 % T/C ± SEM (MIP 101 colon carcinoma) [%]	Experiment #2 % T/C ± SEM (MIP 101 colon carcinoma) [%]	Average % T/C (MIP 101 colon carcinoma) [%]	Experiment #2 regression (Reg.) (1A9 ovarian carcinoma; 1A9 hollow fibers s.c., day 7, Paclitaxel 15 mg/kg i.v. daily for 5 days, regression = (1−Mean T/Mean T0)×100%) [% Reg.**]	Average regression (Reg.) (1A9 ovarian carcinoma; [3]) [% Reg.]	Resistance to paclitaxel of 1A9PTX22 relative to parental 1A9 (1A9PTX22 cell line) [fold]
C=C/C=C\[C@H](C)[C@H](OC(N)=O)[C@@H](C)[C@@H](O)[C@@H](C)C/C(C)=C\[C@H](C)[C@@H](O)[C@@H](C)/C=C\[C@@H](O)C[C@H](O)[C@H](C)[C@H](O)[C@@H](C)C(=O)[O-].[Na+] [Ex. 1, (2R,3S,4S,5S,7S,8Z,10S,11S,12S,13Z,16S,17S,18S,19S,20S,21Z)-19-[(aminocarbonyl)oxy]-3,5,7,11,17-pentahydroxy-2,4,10,12,14,16,18,20-octamethyl-8,13,21,23-tetracosatetraenoic acid, sodium salt]	23 ± 8	14 ± 4	19	6 ± 2	16 ± 7	11	15 ± 4	10 ± 3	13	50 ± 9	90 ± 9	70			
CC(=O)O[C@H]1C(=O)[C@@]2(C)[C@H]([C@H](OC(=O)c3ccccc3)[C@]3(O)C[C@H](OC(=O)[C@H](O)[C@@H](NC(=O)c4ccccc4)c4ccccc4)C(C)=C1C3(C)C)[C@]1(OC(C)=O)CO[C@@H]1C[C@@H]2O [paclitaxel]		1 ± 3		109 ± 16	84 ± 8	97	2 ± 1	1 ± 2	1	113 ± 10	112 ± 11	113	53	26	24
